Data taken from the NIST ThermoML archive (doi:10.1016/j.fluid.2006.09.017).
± gives the expanded uncertainty stated by the source.

Conditions: Liquid

SMILES	vapor or sublimation pressure (258.15 K)	vapor or sublimation pressure (268.15 K)	vapor or sublimation pressure (275.15 K)	vapor or sublimation pressure (283.15 K)	vapor or sublimation pressure (293.15 K)	vapor or sublimation pressure (303.15 K)	vapor or sublimation pressure (313.15 K)	vapor or sublimation pressure (323.15 K)	vapor or sublimation pressure (333.15 K)	vapor or sublimation pressure (343.15 K)	vapor or sublimation pressure (263.15 K)
FCF [difluoromethane]	488.1 ± 15 kPa	690.6 ± 22 kPa	866.5 ± 27 kPa	1107 ± 35 kPa	1475 ± 46 kPa	1928 ± 60 kPa	2478 ± 77 kPa	3141 ± 98 kPa	3933 ± 120 kPa	4877 ± 150 kPa	–
FCC(F)(F)F [1,1,1,2-tetrafluoroethane]	163.9 ± 5.9 kPa	243.3 ± 7.9 kPa	314.6 ± 10 kPa	414.6 ± 13 kPa	571.7 ± 18 kPa	770.2 ± 24 kPa	1017 ± 32 kPa	1318 ± 41 kPa	1682 ± 52 kPa	2117 ± 66 kPa	200.6 ± 6.8 kPa
